Experimental data from US5126258A (priority 1988, dated 1992).

Tests used:
Format in all cases: biochemical, mouse
[1] = tested on: twenty-eight monoclonal anti-hapten antibodies to phosphonate 2i; test: Fluorescence assay of twenty-eight anti-phosphonate 2i antibodies with Compound 5; conditions: pH 7.2
Method: (§1) A Perkin-Elmer LS-5 fluorescence spectrometer was operated at a fixed wavelength, using 355 nanometers (nm) for excitation and measuring the emission at 455 nm. A stock solution of the coumarin ester 5 was prepared in dioxane and was diluted to the desired concentrations in Tris-HCl (50 mM, pH 7) or sodium phosphate (50 mM, pH 4-9).
Reactions were run at 23 degrees C and were initiated by the addition of an aliquot of antibody solution (1 mg/ml) to substrate solutions to provide a final protein concentration of 100 nM. Final fluorescence values were determined by hydrolysis of the substrate with pig liver esterase. The observed reaction rate was corrected for spontaneous hydrolysis. […] Active protein concentration was extrapolated from fluorescence values at the end of the reaction. […] Inhibition constants were determined from the Lineweaver-Burk plot data with at least five inhibitor concentrations. […]
The practical range of pH for the assay is limited by the rapid spontaneous rate of hydrolysis of an ester Compound 5 above pH 8.0. […] Any change in fluorescence above background was noted.
In one study, twenty-eight monoclonal anti-hapten antibodies to phosphonate 2i from two separate fusion experiments were assayed. […] For two of these there was observed a fluorescence change, occurring in the first 5 minutes of incubation, which corresponds to about 50 percent of that for complete hydrolysis. […]

P2 57G4 = test: Catalytic hydrolysis by receptor P2 57G4
Method: Two further catalytic monoclonal receptors were similarly prepared by another fusion using Compound 2i linked to an antigenic carrier as immunogen. Those two catalytic receptor molecules and their hybridomas were designated "P2 50D8" and "P2 57G4".
In one study, twenty-eight monoclonal anti-hapten antibodies to phosphonate 2i from two separate fusion experiments were assayed. […] Antibodies to Compound 4i as hapten were assayed in the same manner. Twelve gamma-globulins were screened as described above. Compound 5 is homologous only in the acyl portion of this larger hapten; however, all but three of these cross-reacted with smaller phosphonate 2 in an ELISA assay as described herein. For two of these there was observed a fluorescence change, occurring in the first 5 minutes of incubation, which corresponds to about 50 percent of that for complete hydrolysis. The background rate of hydrolysis was reestablished after this initial reaction leveled off.

[2] = tested on: anti-Compound 4i antibodies; test: Fluorescence esterolytic assay of twelve anti-Compound 4i gamma-globulins with Compound 5; conditions: two of twelve anti-Compound 4i antibodies, first 5 minutes of incubation
Method: as §1
Reactions were run at 23 degrees C and were initiated by the addition of an aliquot of antibody solution (1 mg/ml) to substrate solutions to provide a final protein concentration of 100 nM. Final fluorescence values were determined by hydrolysis of the substrate with pig liver esterase. The observed reaction rate was corrected for spontaneous hydrolysis. Reaction kinetics were studied by measuring initial rates under pseudo-first order conditions. Active protein concentration was extrapolated from fluorescence values at the end of the reaction. The kinetic parameters were obtained by fitting the data to a hyperbolic curve and from double reciprocal plots. Inhibition constants were determined from the Lineweaver-Burk plot data with at least five inhibitor concentrations. […]
The fluorescence change upon hydrolysis of coumarin esters is easily detectable at nanomolar concentrations.
The practical range of pH for the assay is limited by the rapid spontaneous rate of hydrolysis of an ester Compound 5 above pH 8.0. […] Any change in fluorescence above background was noted. […]

Monoclonal Receptor 37G2 = test: Kinetics of hydrolysis by receptor 37G2
Description: Reaction kinetics were studied using three reactant ligands as substrates for monoclonal receptors 37G2 and 22F5. Data from initial rates were consistent with Michaelis-Menten reaction mechanism for a usual enzyme-substrate system. Initial rates were followed using at 271 nm using a U.V.-visible spectorphotometer for Compound 17, and a fluorescence spectrometer for Compounds 5 and 20, using an excitation wavelength of 355 nm and an emission wavelength of 455 nm for both compounds.
Lineweaver-Burke plots for the catalyzed hydrolysis of Compounds 17, 5 and 20 obtained in the presence and absence of Compound 12i as inhibitor were prepared as discussed for FIG. 4. In particular, Compound 17 was present at concentrations of 1-16 uM with inhibitor concentrations of 100 and 300 nanomolar (nM). Compound 5 was present at concentrations of 1-10 uM with inhibitor concentrations of 100 and 200 nM. Compound 20 was present at concentrations of 2-20 uM with inhibitor concentrations of 25 and 100 nM. […]
50 mM phosphate buffer at a pH value of 8.0. The reactant ligand was
dissolved in dioxane and admixed in the amounts discussed above. Two
milliliters of reaction solution were utilized as was a dioxane
concentration of 2 percent by volume. Assays with Compound 17 as reac tan
ligand utilized 500 nanomolar receptor (based on a molecular weight of
150,000 daltons) in the above buffer, using the reactant ligand dissolved
in dioxane and a total dioxane concentration of 2 percent by volume.

Row | SMILES | reactivity with Compound 5 in fluorescence assay [1] | catalytic hydrolysis by P2 57G4 (P2 57G4) | fluorescence change as share of complete hydrolysis [2] | Km (Monoclonal Receptor 37G2; 50 mM phosphate pH 8.0, 500 nM receptor, 2% dioxane, figure = Km × 10^6) [µM] | kcat (Monoclonal Receptor 37G2; pH 8.0) [s⁻¹] | Vmax (Monoclonal Receptor 37G2; pH 8.0, 500 nM receptor, figure = Vmax × 10^9) [µM/min]
1 | O=C(Cc1ccc(NC(=O)C(F)(F)F)cc1)Oc1ccc2ccc(=O)oc2c1 [Compound 5] | None of these were reactive | capable of catalytically hydrolyzing | about 50% |  |  | 
2 | CC(=O)Nc1ccc(CC(=O)Oc2cccc3ccccc23)cc1 [Compound 17] |  |  |  | 15 | 0.0016 | 0.042
